Results reported in PMC6522524 (Nature Communications, 2019).
Several values for one entry are separate records, joined by “and”; a condition that tells them apart may be missing. Equal entries are not always repeated. Where two headings read alike, the source gives them in different places.

How the values were obtained:
[1] = biological target: T1, Cp149 (truncated HBV core protein) (Hepatitis B virus genotype D subtype ayw, UniProt P03146); assay: biochemical; settings: for Relative intensity, anti core-native gel, individual samples: Sample1-2; for HBV capsid assembly inhibitory activity in vitro (Supplementary Fig. 8): Cp149
T1 construct: Cp149 (amino acids 1–149) is a truncated form of the HBV core protein; made in house; host or cells: Escherichia coli
T1 sequence (P03146 1-149): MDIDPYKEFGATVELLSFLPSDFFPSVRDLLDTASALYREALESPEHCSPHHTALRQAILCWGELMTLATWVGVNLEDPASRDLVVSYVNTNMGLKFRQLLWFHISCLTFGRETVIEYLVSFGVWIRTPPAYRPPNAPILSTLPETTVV

[2] = test system: total HBV core protein in Huh-7 cells; assay type: cell-based, Hepatitis B virus; settings: for Relative Core mRNA level(Folds), individual samples: Sample1-3; for total core protein: treatment time increased
Experimental: the indicated times. The cells were lysed and assembled HBV core particles were isolated by sucrose step-gradient ultracentrifugation, resolved on 1 % agarose gels, and subjected to immunoblot analysis with anti-HBV core antibody. Total intracellular HBV core protein was also determined by immunoblot analysis in the cell lysates. Core mRNA levels were measured by quantitative RT-PCR. The data

[3] = biological target: HBV core protein (pCDNA3-Core, Y118 wild-type) in Huh-7 cells (Hepatitis B virus genotype C, UniProt P0C6H6); assay: cell-based; assay type: cell-based; settings: for activity at 0.1 µM: Huh-7, Y118, 0.1 μM; for activity at 0.5 µM: Huh-7, Y118, 0.5 μM; for activity at 1 µM: Huh-7, Y118, 1 μM; for activity at 5 µM: Huh-7, Y118, 5 μM; for activity at 10 µM: Huh-7, Y118, 10 μM; for HBV capsid assembly inhibitory activity in vivo (Fig. 3d): Huh-7, pCDNA3-Core
HBV core protein (pCDNA3-Core, Y118 wild-type) in Huh-7 cells, sequence (P0C6H6 whole entry): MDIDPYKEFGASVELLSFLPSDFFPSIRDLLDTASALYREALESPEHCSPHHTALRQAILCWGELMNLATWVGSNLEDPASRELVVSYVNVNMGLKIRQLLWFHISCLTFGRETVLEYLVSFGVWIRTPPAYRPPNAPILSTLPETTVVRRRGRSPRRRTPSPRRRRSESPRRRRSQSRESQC

[4] = Sample1-3, read-out: Relative intensity (Folds), intracellular capsid, individual samples
[5] = read-out: Relative intensity (Folds), intracellular capsid, AVERAGE
[6] = Y118, 0.1 μM, Sample1-3, 0.1 µM
[7] = Y118, 0.5 μM, Sample1-3, 0.5 µM

CC1(CC(=O)O)CC(C2CCCCC2)=NO1 (racemic) [(RS)-2-(3-cyclohexyl-5-methyl-4,5-dihydroisoxazol-5-yl)acetic Acid]
Relative intensity, anti core-native gel, AVERAGE ([1]; Drug Concentration 0.1 μM): 0.9301 | Relative intensity, anti core-native gel, individual samples ([1]; Drug Concentration 0.1 μM): 1.019 and 0.8411 | Relative intensity, anti core-native gel, AVERAGE ([1]; Drug Concentration 0.2 μM): 1.003 | Relative intensity, anti core-native gel, individual samples ([1]; Drug Concentration 0.2 μM): 1.033 and 0.9731 | Relative intensity, anti core-native gel, AVERAGE ([1]; Drug Concentration 0.5 μM): 0.9877 | Relative intensity, anti core-native gel, individual samples ([1]; Drug Concentration 0.5 μM): 0.9703 and 1.005 | Relative intensity, anti core-native gel, AVERAGE ([1]; Drug Concentration 1 μM): 0.9712 | Relative intensity, anti core-native gel, individual samples ([1]; Drug Concentration 1 μM): 1.074 and 0.8679 | Relative intensity, anti core-native gel, AVERAGE ([1]; Drug Concentration 2 μM): 0.9867 | Relative intensity, anti core-native gel, individual samples ([1]; Drug Concentration 2 μM): 1.072 and 0.9014 | Relative intensity, anti core-native gel, AVERAGE ([1]; Drug Concentration 5 μM): 0.9809 | Relative intensity, anti core-native gel, individual samples ([1]; Drug Concentration 5 μM): 1.098 and 0.8634 | Relative intensity, anti core-native gel, AVERAGE ([1]; Drug Concentration 10 μM): 1.051 | Relative intensity, anti core-native gel, individual samples ([1]; Drug Concentration 10 μM): 1.175 and 0.9277

GLS-4
Relative Core mRNA level(Folds), AVERAGE ([2]; 1.5day, 0.1 μM): 0.9973 Folds | Relative Core mRNA level(Folds), individual samples ([2]; 1.5day, 0.1 μM): 1.007 Folds and 1.003 Folds and 0.9824 Folds | Relative Core mRNA level(Folds), AVERAGE ([2]; 1.5day, 0.5 μM): 1.0017 Folds | Relative Core mRNA level(Folds), individual samples ([2]; 1.5day, 0.5 μM): 0.9742 Folds and 0.987 Folds and 1.044 Folds | Relative Core mRNA level(Folds), AVERAGE ([2]; 1.5day, 1 μM): 0.9997 Folds | Relative Core mRNA level(Folds), individual samples ([2]; 1.5day, 1 μM): 1.008 Folds and 0.9861 Folds and 1.005 Folds | Relative Core mRNA level(Folds), AVERAGE ([2]; 1.5day, 5 μM): 1.008 Folds | Relative Core mRNA level(Folds), individual samples ([2]; 1.5day, 5 μM): 1.002 Folds and 0.9963 Folds and 1.025 Folds | Relative Core mRNA level(Folds), AVERAGE ([2]; 1.5day, 10 μM): 0.9997 Folds | Relative Core mRNA level(Folds), individual samples ([2]; 1.5day, 10 μM): 0.9972 Folds and 0.9916 Folds and 1.01 Folds | Relative Core mRNA level(Folds), AVERAGE ([2]; 2.5day, 0.1 μM): 0.9923 Folds | Relative Core mRNA level(Folds), individual samples ([2]; 2.5day, 0.1 μM): 1.007 Folds and 0.9944 Folds and 0.976 Folds | Relative Core mRNA level(Folds), AVERAGE ([2]; 2.5day, 0.5 μM): 0.9898 Folds | Relative Core mRNA level(Folds), individual samples ([2]; 2.5day, 0.5 μM): 1 Folds and 0.9926 Folds and 0.9769 Folds | Relative Core mRNA level(Folds), AVERAGE ([2]; 2.5day, 1 μM): 0.9998 Folds | Relative Core mRNA level(Folds), individual samples ([2]; 2.5day, 1 μM): 1.0179 Folds and 1.005 Folds and 0.9769 Folds | Relative Core mRNA level(Folds), AVERAGE ([2]; 2.5day, 5 μM): 0.9873 Folds | Relative Core mRNA level(Folds), individual samples ([2]; 2.5day, 5 μM): 0.9861 Folds and 0.9889 Folds and 0.987 Folds | Relative Core mRNA level(Folds), AVERAGE ([2]; 2.5day, 10 μM): 1.003 Folds | Relative Core mRNA level(Folds), individual samples ([2]; 2.5day, 10 μM): 1.007 Folds and 1.001 Folds | Relative Core mRNA level(Folds), AVERAGE ([2]; 4.5day, 0.1 μM): 0.9929 Folds | Relative Core mRNA level(Folds), individual samples ([2]; 4.5day, 0.1 μM): 1.007 Folds and 0.9944 Folds and 0.9778 Folds | Relative Core mRNA level(Folds), AVERAGE ([2]; 4.5day, 0.5 μM): 0.9886 Folds | Relative Core mRNA level(Folds), individual samples ([2]; 4.5day, 0.5 μM): 1 Folds and 0.9889 Folds and 0.9769 Folds | Relative Core mRNA level(Folds), AVERAGE ([2]; 4.5day, 1 μM): 0.9986 Folds | Relative Core mRNA level(Folds), individual samples ([2]; 4.5day, 1 μM): 1.0179 Folds and 1.001 Folds and 0.9769 Folds | Relative Core mRNA level(Folds), AVERAGE ([2]; 4.5day, 5 μM): 0.9904 Folds | Relative Core mRNA level(Folds), individual samples ([2]; 4.5day, 5 μM): 0.9861 Folds and 0.9981 Folds and 0.987 Folds | Relative Core mRNA level(Folds), AVERAGE ([2]; 4.5day, 10 μM): 0.9982 Folds | Relative Core mRNA level(Folds), individual samples ([2]; 4.5day, 10 μM): 1.007 Folds and 0.9916 Folds and 0.9963 Folds | total core protein [2]: decreased | Relative intensity (Folds), in vitro core assembly, individual samples [1]: 1.0339 Folds and 1.019 Folds and 0.9819 Folds and 1.079 Folds and 1.058 Folds and 1.102 Folds and 0.3491 Folds and 0.342 Folds and 0.3462 Folds and 0.1267 Folds and 0.1171 Folds and 0.123 Folds and 0.01326 Folds and 0.01176 Folds and 0.01165 Folds and 0 Folds (6×)

Cc1cc(C2CCCCC2)oc(=O)c1 [Compound 3, 6-Cyclohexyl-4-methyl-2–pyrone]
HBV capsid assembly inhibitory activity in vitro (Supplementary Fig. 8) [1]: blocked its HBV capsid assembly inhibitory activity | Relative intensity, anti core-native gel, AVERAGE ([1]; Drug Concentration 0.1 μM): 0.9537 | Relative intensity, anti core-native gel, individual samples ([1]; Drug Concentration 0.1 μM, listed as 6-Cycloxexyl-4-methyl-2-pyrone): 0.8748 and 1.033 | Relative intensity, anti core-native gel, AVERAGE ([1]; Drug Concentration 0.2 μM): 0.9345 | Relative intensity, anti core-native gel, individual samples ([1]; Drug Concentration 0.2 μM, listed as 6-Cycloxexyl-4-methyl-2-pyrone): 0.9048 and 0.9643 | Relative intensity, anti core-native gel, AVERAGE ([1]; Drug Concentration 0.5 μM): 0.8949 | Relative intensity, anti core-native gel, individual samples ([1]; Drug Concentration 0.5 μM, listed as 6-Cycloxexyl-4-methyl-2-pyrone): 0.8127 and 0.9771 | Relative intensity, anti core-native gel, AVERAGE ([1]; Drug Concentration 1 μM): 0.9182 | Relative intensity, anti core-native gel, individual samples ([1]; Drug Concentration 1 μM, listed as 6-Cycloxexyl-4-methyl-2-pyrone): 0.8468 and 0.9896 | Relative intensity, anti core-native gel, AVERAGE ([1]; Drug Concentration 2 μM): 0.8055 | Relative intensity, anti core-native gel, individual samples ([1]; Drug Concentration 2 μM, listed as 6-Cycloxexyl-4-methyl-2-pyrone): 0.798 and 0.8131 | Relative intensity, anti core-native gel, AVERAGE ([1]; Drug Concentration 5 μM): 0.9044 | Relative intensity, anti core-native gel, individual samples ([1]; Drug Concentration 5 μM, listed as 6-Cycloxexyl-4-methyl-2-pyrone): 0.8531 and 0.9558 | Relative intensity, anti core-native gel, AVERAGE ([1]; Drug Concentration 10 μM): 1.014 | Relative intensity, anti core-native gel, individual samples ([1]; Drug Concentration 10 μM, listed as 6-Cycloxexyl-4-methyl-2-pyrone): 0.9919 and 1.036 | activity at 0.1 µM [3, 4]: 109% | activity at 0.1 µM [3, 5]: 119% | activity at 0.5 µM [3, 5]: 113% | activity at 1 µM [3, 4]: 103% | activity at 1 µM [3, 5]: 106% | activity at 5 µM [3, 4]: 110% | activity at 5 µM [3, 5]: 115% | activity at 10 µM [3, 5]: 115% | HBV capsid assembly inhibitory activity in vivo (Fig. 3d) [3]: blocked its HBV capsid assembly inhibitory activity | Relative intensity (Folds), intracellular capsid, individual samples [3, 6]: 1.2405 Folds and 1.2516 Folds | Relative intensity (Folds), intracellular capsid, individual samples [3, 7]: 0.9808 Folds and 1.196 Folds and 1.214 Folds | Relative intensity (Folds), intracellular capsid, individual samples ([3]; Y118, 1 μM, Sample1-3, 1 µM): 1.107 Folds and 1.042 Folds | Relative intensity (Folds), intracellular capsid, individual samples ([3]; Y118, 5 μM, Sample1-3, 5 µM): 1.192 Folds and 1.143 Folds | Relative intensity (Folds), intracellular capsid, individual samples ([3]; Y118, 10 μM, Sample1-3, 10 µM): 0.9807 Folds and 1.199 Folds and 1.28 Folds

Bay41–4109
total core protein [2]: decreased

Cc1cc(C2CCCCC2)[nH]c(=O)c1 [Compound 2, 6-Cyclohexyl-4-methyl pyridin-2(1H)-one]
HBV capsid assembly inhibitory activity in vitro (Supplementary Fig. 8) [1]: blocked its HBV capsid assembly inhibitory activity | Relative intensity, anti core-native gel, AVERAGE ([1]; Drug Concentration 0.1 μM): 0.9832 | Relative intensity, anti core-native gel, individual samples ([1]; Drug Concentration 0.1 μM): 0.9055 and 1.061 | Relative intensity, anti core-native gel, AVERAGE ([1]; Drug Concentration 0.2 μM): 1.01 | Relative intensity, anti core-native gel, individual samples ([1]; Drug Concentration 0.2 μM): 0.8978 and 1.1231 | Relative intensity, anti core-native gel, AVERAGE ([1]; Drug Concentration 0.5 μM): 0.9545 | Relative intensity, anti core-native gel, individual samples ([1]; Drug Concentration 0.5 μM): 0.9595 and 0.9494 | Relative intensity, anti core-native gel, AVERAGE ([1]; Drug Concentration 1 μM): 0.9058 | Relative intensity, anti core-native gel, individual samples ([1]; Drug Concentration 1 μM): 0.865 and 0.9466 | Relative intensity, anti core-native gel, AVERAGE ([1]; Drug Concentration 2 μM): 0.9815 | Relative intensity, anti core-native gel, individual samples ([1]; Drug Concentration 2 μM): 0.9391 and 1.024 | Relative intensity, anti core-native gel, AVERAGE ([1]; Drug Concentration 5 μM): 0.9702 | Relative intensity, anti core-native gel, individual samples ([1]; Drug Concentration 5 μM): 0.8581 and 1.082 | Relative intensity, anti core-native gel, AVERAGE ([1]; Drug Concentration 10 μM): 0.8707 | Relative intensity, anti core-native gel, individual samples ([1]; Drug Concentration 10 μM): 0.8904 and 0.851 | activity at 0.1 µM [3, 4]: 94% | activity at 0.1 µM [3, 5]: 96.2% | activity at 0.5 µM [3, 4]: 96.4% | activity at 0.5 µM [3, 5]: 98.6% | activity at 1 µM [3, 4]: 90.2% | activity at 1 µM [3, 5]: 101% | activity at 5 µM [3, 4]: 85.6% | activity at 5 µM [3, 5]: 95.8% | activity at 10 µM [3, 4]: 87.2% | activity at 10 µM [3, 5]: 99.5% | HBV capsid assembly inhibitory activity in vivo (Fig. 3d) [3]: blocked its HBV capsid assembly inhibitory activity | Relative intensity (Folds), intracellular capsid, individual samples [3, 6]: 1.008 Folds and 0.9391 Folds | Relative intensity (Folds), intracellular capsid, individual samples [3, 7]: 1.032 Folds and 0.9631 Folds | Relative intensity (Folds), intracellular capsid, individual samples ([3]; Y118, 1 μM, Sample1-3, 1 µM): 1.06 Folds and 1.081 Folds | Relative intensity (Folds), intracellular capsid, individual samples ([3]; Y118, 5 μM, Sample1-3, 5 µM): 1.004 Folds and 1.015 Folds | Relative intensity (Folds), intracellular capsid, individual samples ([3]; Y118, 10 μM, Sample1-3, 10 µM): 1.04 Folds and 1.071 Folds
